Tests used:
Assay in all cases: KinomeScan kinase panel
Assay type in all cases: binding
IRAK3 = molecular target: T1, IRAK3 (Homo sapiens, UniProt Q9Y616)
T1 construct: purchased DiscoveRx Corporation (KinomeScan)
Procedure, shortened: (§1)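 Panel screen (KinomeScan, 442 kinases). One test concentration, 1000 nM; no dose-response.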

NLK = molecular target: T2, NLK (Homo sapiens, UniProt Q9UBE8)
T2 construct: purchased DiscoveRx Corporation (KinomeScan panel)
Procedure, shortened: as §1

KIT(D816V) = molecular target: T3, KIT(D816V) (Homo sapiens, UniProt P10721, D816V)
T3 construct: purchased DiscoveRx Corporation (KinomeScan)
Procedure, shortened: as §1

ABL1-nonphosphorylated = molecular target: T4, ABL1-nonphosphorylated (Homo sapiens, UniProt P00519)
T4 construct: purchased DiscoveRx Corporation (KinomeScan)
Procedure, shortened: as §1

EGFR(S752-1759del) = molecular target: T5, EGFR(S752-1759del) (Homo sapiens, UniProt P00533, DEL752-759)
T5 construct: purchased DiscoveRx Corporation (KinomeScan)
Procedure, shortened: as §1

PIK3CG = molecular target: T6, PIK3CG (Homo sapiens, UniProt P48736)
T6 construct: purchased DiscoveRx Corporation (KinomeScan)
Procedure, shortened: as §1

ERBB2 = molecular target: T7, ERBB2 (Homo sapiens, UniProt P04626)
T7 construct: purchased DiscoveRx Corporation (KinomeScan)
Procedure, shortened: as §1

EGFR(L747-E749del,A750P) = molecular target: T8, EGFR(L747-E749del,A750P) (Homo sapiens, UniProt P00533, A750P/DEL747-749)
T8 construct: purchased DiscoveRx Corporation (KinomeScan)
Procedure, shortened: as §1

RIPK5 = molecular target: T9, RIPK5 (Homo sapiens, UniProt Q6XUX3)
T9 construct: purchased DiscoveRx Corporation
Procedure, shortened: as §1

SYK = molecular target: T10, SYK (Homo sapiens, UniProt P43405)
T10 construct: purchased DiscoveRx Corporation (KinomeScan)
Procedure, shortened: as §1

CSR1 = molecular target: T11, CSR1 (Homo sapiens, UniProt O95747)
T11 construct: purchased DiscoveRx Corporation (KinomeScan panel)
Procedure, shortened: as §1

MLK1 = molecular target: T12, MLK1 (Homo sapiens, UniProt P80192)
T12 construct: purchased DiscoveRx Corporation (KinomeScan)
Procedure, shortened: as §1

VRK2 = molecular target: T13, VRK2 (Homo sapiens, UniProt Q86Y07)
T13 construct: purchased DiscoveRx Corporation (KinomeScan service)
Procedure, shortened: as §1

EPHA6 = molecular target: T14, EPHA6 (Homo sapiens, UniProt Q9UF33)
T14 construct: purchased DiscoveRx Corporation (KinomeScan)
Procedure, shortened: as §1

RET (V804M) = molecular target: T15, RET (V804M) (Homo sapiens, UniProt P07949, V804M)
T15 construct: purchased DiscoveRx Corporation
Procedure, shortened: as §1

ACVR1B = molecular target: T16, ACVR1B (Homo sapiens, UniProt P36896)
T16 construct: purchased DiscoveRx Corporation (KinomeScan)
Procedure, shortened: as §1

CIT = molecular target: T17, CIT (Homo sapiens, UniProt O14578)
T17 construct: purchased DiscoveRx Corporation (KinomeScan)
Procedure, shortened: as §1

KIT(A829P) = molecular target: T18, KIT(A829P) (Homo sapiens, UniProt P10721, A829P)
T18 construct: purchased DiscoveRx Corporation (KinomeScan)
Procedure, shortened: as §1

NEK7 = molecular target: T19, NEK7 (Homo sapiens, UniProt Q8TDX7)
T19 construct: purchased DiscoveRx Corporation (KinomeScan panel)
Procedure, shortened: as §1

MAPKAPK2 = molecular target: T20, MAPKAPK2 (Homo sapiens, UniProt P49137)
T20 construct: purchased DiscoveRx Corporation (KinomeScan)
Procedure, shortened: as §1

TBK1 = molecular target: T21, TBK1 (Homo sapiens, UniProt Q9UHD2)
T21 construct: purchased DiscoveRx Corporation (KinomeScan)
Procedure, shortened: as §1

EGFR(L858R) = molecular target: T22, EGFR(L858R) (Homo sapiens, UniProt P00533, L858R)
T22 construct: purchased DiscoveRx Corporation (KinomeScan)
Procedure, shortened: as §1

PCTK2 = molecular target: T23, PCTK2 (Homo sapiens, UniProt Q00537)
T23 construct: purchased DiscoveRx Corporation (KinomeScan panel)
Procedure, shortened: as §1

EIF2AK1 = molecular target: T24, EIF2AK1 (Homo sapiens, UniProt Q9BQI3)
T24 construct: purchased DiscoveRx Corporation (KinomeScan)
Procedure, shortened: as §1

[1] = molecular target: T25, RSK1(Kin.Dom.1-N-terminal) (Homo sapiens, UniProt Q15418)
T25 construct: Kin.Dom.1; purchased DiscoveRx Corporation
Procedure, shortened: as §1

BRSK1 = molecular target: T26, BRSK1 (Homo sapiens, UniProt Q8TDC3)
T26 construct: purchased DiscoveRx Corporation (KinomeScan)
Procedure, shortened: as §1

ITK = molecular target: T27, ITK (Homo sapiens, UniProt Q08881)
T27 construct: purchased DiscoveRx Corporation (KinomeScan)
Procedure, shortened: as §1

IRAK4 = molecular target: T28, IRAK4 (Homo sapiens, UniProt Q9NWZ3)
T28 construct: purchased DiscoveRx Corporation (KinomeScan)
Procedure, shortened: as §1

EPHA3 = molecular target: T29, EPHA3 (Homo sapiens, UniProt P29320)
T29 construct: purchased DiscoveRx Corporation (KinomeScan)
Procedure, shortened: as §1

PLK1 = molecular target: T30, PLK1 (Homo sapiens, UniProt P53350)
T30 construct: purchased DiscoveRx Corporation (KinomeScan)
Procedure, shortened: as §1

PRKX = molecular target: T31, PRKX (Homo sapiens, UniProt P51817)
T31 construct: purchased DiscoveRx Corporation
Procedure, shortened: as §1

PLK3 = molecular target: T32, PLK3 (Homo sapiens, UniProt Q9H4B4)
T32 construct: purchased DiscoveRx Corporation (KinomeScan)
Procedure, shortened: as §1

DAPK1 = molecular target: T33, DAPK1 (Homo sapiens, UniProt P53355)
T33 construct: purchased DiscoveRx Corporation (KinomeScan)
Procedure, shortened: as §1

ABL2 = molecular target: T34, ABL2 (Homo sapiens, UniProt P42684)
T34 construct: purchased DiscoveRx Corporation (KinomeScan)
Procedure, shortened: as §1

PRP4 = molecular target: T35, PRP4 (Homo sapiens, UniProt Q13523)
T35 construct: purchased DiscoveRx Corporation
Procedure, shortened: as §1

T21 sequence (Q9UHD2 whole entry): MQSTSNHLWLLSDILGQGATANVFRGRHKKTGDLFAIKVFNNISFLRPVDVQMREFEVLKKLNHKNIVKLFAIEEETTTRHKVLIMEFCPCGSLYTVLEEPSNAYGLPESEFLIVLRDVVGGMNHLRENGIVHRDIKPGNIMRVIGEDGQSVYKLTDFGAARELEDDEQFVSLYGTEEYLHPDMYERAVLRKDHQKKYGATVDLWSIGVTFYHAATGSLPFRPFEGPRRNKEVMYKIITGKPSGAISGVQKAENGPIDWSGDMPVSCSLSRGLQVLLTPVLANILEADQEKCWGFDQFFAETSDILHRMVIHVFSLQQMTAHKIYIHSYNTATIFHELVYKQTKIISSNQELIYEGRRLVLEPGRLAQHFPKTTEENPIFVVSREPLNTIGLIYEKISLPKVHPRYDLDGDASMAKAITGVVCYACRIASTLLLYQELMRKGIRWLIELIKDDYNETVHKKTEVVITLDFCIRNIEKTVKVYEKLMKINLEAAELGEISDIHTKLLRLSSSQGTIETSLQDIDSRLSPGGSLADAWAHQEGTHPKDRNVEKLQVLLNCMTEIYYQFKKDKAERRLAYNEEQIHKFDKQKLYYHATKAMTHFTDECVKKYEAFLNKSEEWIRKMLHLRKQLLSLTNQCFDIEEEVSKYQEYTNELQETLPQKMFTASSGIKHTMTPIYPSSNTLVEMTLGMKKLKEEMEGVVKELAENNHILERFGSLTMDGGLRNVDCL
T24 sequence (Q9BQI3 whole entry): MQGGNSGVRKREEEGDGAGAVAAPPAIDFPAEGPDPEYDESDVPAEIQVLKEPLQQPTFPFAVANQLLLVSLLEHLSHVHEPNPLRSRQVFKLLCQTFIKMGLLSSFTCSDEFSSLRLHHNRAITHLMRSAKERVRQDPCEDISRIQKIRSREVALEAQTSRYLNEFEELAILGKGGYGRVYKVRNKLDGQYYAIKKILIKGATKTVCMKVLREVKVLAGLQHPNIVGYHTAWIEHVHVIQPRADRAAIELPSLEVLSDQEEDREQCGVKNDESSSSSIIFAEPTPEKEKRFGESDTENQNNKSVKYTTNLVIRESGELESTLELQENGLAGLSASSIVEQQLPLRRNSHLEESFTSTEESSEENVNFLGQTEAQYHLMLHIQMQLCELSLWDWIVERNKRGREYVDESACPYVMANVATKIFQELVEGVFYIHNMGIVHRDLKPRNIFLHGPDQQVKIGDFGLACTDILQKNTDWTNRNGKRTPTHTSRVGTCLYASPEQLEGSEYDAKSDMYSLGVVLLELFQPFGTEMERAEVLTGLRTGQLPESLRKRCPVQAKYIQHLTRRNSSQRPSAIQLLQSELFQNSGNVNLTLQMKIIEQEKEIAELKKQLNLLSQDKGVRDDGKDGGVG
T15 sequence (P07949 29-1114 V804M): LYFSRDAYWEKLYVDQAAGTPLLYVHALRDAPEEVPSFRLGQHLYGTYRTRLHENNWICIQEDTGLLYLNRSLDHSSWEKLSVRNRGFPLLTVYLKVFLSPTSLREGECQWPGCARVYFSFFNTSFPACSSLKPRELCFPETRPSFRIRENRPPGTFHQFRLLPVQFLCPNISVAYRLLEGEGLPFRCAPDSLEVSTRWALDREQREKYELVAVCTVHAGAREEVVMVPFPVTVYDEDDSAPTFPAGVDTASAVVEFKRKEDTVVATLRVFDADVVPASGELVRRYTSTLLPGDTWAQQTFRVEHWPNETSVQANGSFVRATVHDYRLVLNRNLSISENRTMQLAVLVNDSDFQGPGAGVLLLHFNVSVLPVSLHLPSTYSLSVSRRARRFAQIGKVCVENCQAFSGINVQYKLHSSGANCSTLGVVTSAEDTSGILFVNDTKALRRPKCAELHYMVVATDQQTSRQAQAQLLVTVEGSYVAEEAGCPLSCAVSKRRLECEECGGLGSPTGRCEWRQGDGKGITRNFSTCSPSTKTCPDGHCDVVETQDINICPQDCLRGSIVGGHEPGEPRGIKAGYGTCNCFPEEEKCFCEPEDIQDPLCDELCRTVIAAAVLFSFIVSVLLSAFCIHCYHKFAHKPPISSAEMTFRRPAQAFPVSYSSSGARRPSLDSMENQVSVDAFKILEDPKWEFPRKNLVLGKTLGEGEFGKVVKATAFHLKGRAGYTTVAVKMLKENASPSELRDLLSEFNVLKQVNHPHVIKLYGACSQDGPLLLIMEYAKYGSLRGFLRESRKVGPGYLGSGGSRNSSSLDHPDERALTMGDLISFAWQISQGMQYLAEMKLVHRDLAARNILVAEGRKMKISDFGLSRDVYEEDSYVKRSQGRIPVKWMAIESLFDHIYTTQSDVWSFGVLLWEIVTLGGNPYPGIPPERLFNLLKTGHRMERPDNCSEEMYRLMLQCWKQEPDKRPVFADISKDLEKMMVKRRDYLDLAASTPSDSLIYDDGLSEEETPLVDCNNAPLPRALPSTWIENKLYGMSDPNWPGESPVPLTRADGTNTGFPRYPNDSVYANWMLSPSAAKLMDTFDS
T11 sequence (O95747 whole entry): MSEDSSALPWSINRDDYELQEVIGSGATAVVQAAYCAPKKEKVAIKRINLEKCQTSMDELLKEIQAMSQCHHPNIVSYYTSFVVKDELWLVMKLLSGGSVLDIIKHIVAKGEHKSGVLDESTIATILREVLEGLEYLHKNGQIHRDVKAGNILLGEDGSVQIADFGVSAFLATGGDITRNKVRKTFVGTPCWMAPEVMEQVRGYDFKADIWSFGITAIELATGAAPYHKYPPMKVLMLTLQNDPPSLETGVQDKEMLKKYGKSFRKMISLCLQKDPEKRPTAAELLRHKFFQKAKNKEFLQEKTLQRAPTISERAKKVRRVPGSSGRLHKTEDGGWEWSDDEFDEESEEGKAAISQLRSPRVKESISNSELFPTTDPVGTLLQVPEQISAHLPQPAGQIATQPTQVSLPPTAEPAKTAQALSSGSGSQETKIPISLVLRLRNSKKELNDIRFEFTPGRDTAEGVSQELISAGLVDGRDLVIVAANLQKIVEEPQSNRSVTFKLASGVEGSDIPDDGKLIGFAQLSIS
T30 sequence (P53350 whole entry): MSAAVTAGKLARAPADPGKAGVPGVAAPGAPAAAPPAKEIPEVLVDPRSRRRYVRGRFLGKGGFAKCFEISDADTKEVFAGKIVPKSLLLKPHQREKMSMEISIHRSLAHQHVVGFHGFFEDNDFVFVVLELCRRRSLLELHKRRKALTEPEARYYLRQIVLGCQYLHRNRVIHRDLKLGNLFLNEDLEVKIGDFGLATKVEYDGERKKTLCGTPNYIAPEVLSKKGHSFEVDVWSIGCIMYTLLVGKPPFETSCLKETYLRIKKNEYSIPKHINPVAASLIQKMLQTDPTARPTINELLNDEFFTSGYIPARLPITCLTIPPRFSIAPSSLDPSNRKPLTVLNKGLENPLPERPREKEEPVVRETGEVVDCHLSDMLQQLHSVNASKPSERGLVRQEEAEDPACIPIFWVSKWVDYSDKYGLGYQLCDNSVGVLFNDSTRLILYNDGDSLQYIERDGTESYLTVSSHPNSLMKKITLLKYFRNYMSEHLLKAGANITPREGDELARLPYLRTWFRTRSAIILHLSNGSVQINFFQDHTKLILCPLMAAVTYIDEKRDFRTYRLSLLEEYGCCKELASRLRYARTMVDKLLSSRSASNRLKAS
T34 sequence (P42684 whole entry): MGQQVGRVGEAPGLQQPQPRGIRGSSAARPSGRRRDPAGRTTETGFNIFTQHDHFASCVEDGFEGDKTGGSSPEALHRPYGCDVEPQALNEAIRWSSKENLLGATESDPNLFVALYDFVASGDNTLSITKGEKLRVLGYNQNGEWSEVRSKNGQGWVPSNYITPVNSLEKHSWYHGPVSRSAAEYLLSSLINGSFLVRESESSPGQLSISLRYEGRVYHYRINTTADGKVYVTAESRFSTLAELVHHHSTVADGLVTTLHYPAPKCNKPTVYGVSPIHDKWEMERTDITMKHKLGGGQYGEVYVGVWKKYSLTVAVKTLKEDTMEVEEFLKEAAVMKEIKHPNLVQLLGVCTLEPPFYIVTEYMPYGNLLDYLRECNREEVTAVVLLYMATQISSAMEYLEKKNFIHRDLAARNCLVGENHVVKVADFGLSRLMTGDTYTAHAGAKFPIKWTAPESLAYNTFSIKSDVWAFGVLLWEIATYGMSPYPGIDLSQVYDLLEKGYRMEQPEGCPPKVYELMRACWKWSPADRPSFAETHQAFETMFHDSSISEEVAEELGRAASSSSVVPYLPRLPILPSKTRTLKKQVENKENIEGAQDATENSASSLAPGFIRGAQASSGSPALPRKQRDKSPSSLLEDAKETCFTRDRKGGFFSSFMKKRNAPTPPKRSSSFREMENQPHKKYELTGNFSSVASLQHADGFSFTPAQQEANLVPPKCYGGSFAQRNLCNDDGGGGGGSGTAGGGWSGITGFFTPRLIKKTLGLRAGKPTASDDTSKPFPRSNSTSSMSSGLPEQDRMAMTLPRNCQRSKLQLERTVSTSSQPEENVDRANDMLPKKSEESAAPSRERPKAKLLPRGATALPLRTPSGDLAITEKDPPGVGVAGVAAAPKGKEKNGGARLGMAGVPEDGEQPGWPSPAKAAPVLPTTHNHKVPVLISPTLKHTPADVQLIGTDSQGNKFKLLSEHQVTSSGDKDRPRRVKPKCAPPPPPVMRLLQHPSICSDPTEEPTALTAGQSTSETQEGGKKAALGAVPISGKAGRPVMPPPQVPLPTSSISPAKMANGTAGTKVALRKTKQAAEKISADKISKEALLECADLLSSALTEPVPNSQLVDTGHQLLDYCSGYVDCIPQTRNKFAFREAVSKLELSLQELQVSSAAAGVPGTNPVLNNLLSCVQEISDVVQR
T19 sequence (Q8TDX7 whole entry): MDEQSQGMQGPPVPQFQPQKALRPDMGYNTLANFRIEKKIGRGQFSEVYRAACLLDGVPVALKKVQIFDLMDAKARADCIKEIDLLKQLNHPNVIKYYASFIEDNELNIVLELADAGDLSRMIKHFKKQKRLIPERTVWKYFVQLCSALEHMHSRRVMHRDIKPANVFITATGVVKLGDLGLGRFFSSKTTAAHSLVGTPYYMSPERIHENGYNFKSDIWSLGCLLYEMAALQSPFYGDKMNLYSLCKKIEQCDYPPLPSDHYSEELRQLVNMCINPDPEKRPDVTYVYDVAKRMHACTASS

CCOP(=O)(CN1CCC(COc2cc3nccc(Oc4ccc(NC(=O)C5(C(=O)Nc6ccc(F)cc6)CC5)cc4F)c3cc2OC)CC1)OCC [Example 10, N1-[4-[[7-[[1-(diethoxyphosphorylmethyl)-4-piperidinyl]methoxyl]-6-methoxyl-4-quinolyl]oxyl]-3-fluorophenyl]-N1′-(4-fluorophenyl)cyclopropane-1,1-dicarboxamide]
% Ctrl@1000 nM (IRAK3): 33 % Ctrl | % Ctrl@1000 nM (NLK): 100 % Ctrl | % Ctrl@1000 nM (KIT(D816V)): 18 % Ctrl | % Ctrl@1000 nM (ABL1-nonphosphorylated): 1.8 % Ctrl | % Ctrl@1000 nM (EGFR(S752-1759del)): 82 % Ctrl | % Ctrl@1000 nM (PIK3CG): 100 % Ctrl | % Ctrl@1000 nM (ERBB2): 96 % Ctrl | % Ctrl@1000 nM (EGFR(L747-E749del,A750P)): 67 % Ctrl | % Ctrl@1000 nM (RIPK5): 82 % Ctrl | % Ctrl@1000 nM (SYK): 58 % Ctrl | % Ctrl@1000 nM (CSR1): 96 % Ctrl | % Ctrl@1000 nM (MLK1): 83 % Ctrl | % Ctrl@1000 nM (VRK2): 100 % Ctrl | % Ctrl@1000 nM (EPHA6): 4.8 % Ctrl | % Ctrl@1000 nM (RET (V804M)): 0.6 % Ctrl | % Ctrl@1000 nM (ACVR1B): 100 % Ctrl | % Ctrl@1000 nM (CIT): 100 % Ctrl | % Ctrl@1000 nM (KIT(A829P)): 64 % Ctrl | % Ctrl@1000 nM (NEK7): 100 % Ctrl | % Ctrl@1000 nM (MAPKAPK2): 100 % Ctrl | % Ctrl@1000 nM (TBK1): 79 % Ctrl | % Ctrl@1000 nM (EGFR(L858R)): 59 % Ctrl | % Ctrl@1000 nM (PCTK2): 100 % Ctrl | % Ctrl@1000 nM (EIF2AK1): 100 % Ctrl | % Ctrl@1000 nM [1]: 59 % Ctrl | % Ctrl@1000 nM (BRSK1): 100 % Ctrl | % Ctrl@1000 nM (ITK): 34 % Ctrl | % Ctrl@1000 nM (IRAK4): 100 % Ctrl | % Ctrl@1000 nM (EPHA3): 6 % Ctrl | % Ctrl@1000 nM (PLK1): 100 % Ctrl | % Ctrl@1000 nM (PRKX): 81 % Ctrl | % Ctrl@1000 nM (PLK3): 100 % Ctrl | % Ctrl@1000 nM (DAPK1): 100 % Ctrl | % Ctrl@1000 nM (ABL2): 28 % Ctrl | % Ctrl@1000 nM (PRP4): 76 % Ctrl
